The source of these data is patent publication US20210130291A1, “METHODS FOR TREATING DIABETES USING VDAC1 INHIBITORS” (THE NATIONAL INSTITUTE FOR BIOTECHNOLOGY IN THE NEGEV LTD., priority 2016, published 2021).

The test system of test [1] is VDAC1 expression in INS-1 cells. As to the kind of experiment: VDAC1 expression in INS-1 cells cultured at 5 or 20 mM glucose. The test is classed as cell-based, rat. The conditions noted are these: INS-1 cells cultured 72 h at 20 mM glucose; VDAC1ab 10 nM, metformin, AKOS, VBIT-4 20 μM each (FIG. 4l, 4m). How it is done: INS-1 832/13 cells (kindly donated by Dr. C. B. Newgaard, Duke University, USA) were cultured in RPMI-1640 containing 11.1 mM D-glucose and supplemented with 10% fetal bovine serum, 100 U/ml penicillin (Gibco), 100 µg/ml streptomycin (Gibco), 10 mM HEPES, 2 mM glutamine, 1 mM sodium pyruvate, and 50 µM β-mercaptoethanol (Sigma), at 37° C. in a humidified atmosphere containing 95% air and 5% CO2. For VDAC1 over-expression by VDAC1 plasmid (1 μg/ml) and VDAC2 down-regulation by and siRNA, INS1 832/13 cells were cultured to 60% confluence. To study the long-term effects (24-72 h) of high glucose (20 mM) (glucotoxicity) compared to basal glucose (5 mM), INS-1 832/13 cells were cultured with RPMI 1640 complete media (Ahmed, M., et al., 2010. Islets 2, 283-292) in the presence or absence of indicated agents and thereafter VDAC1 expression, cell viability and function was measured.
Total RNA from handpicked mouse islets, human donor islets (Diabetic and non-diabetic) or INS1 832/13 cells were extracted using RNAeasy (Qiagen, Hilden, Germany). RNA ([…]) was used for cDNA synthesis with SuperScript (Invitrogen, Carlsbad, Calif., USA). Concentration and purity of total RNA was measured with a NanoDrop ND-1000 spectrophotometer (A260/A280>1.9 and A260/A230>1.4) (NanoDrop Technologies, Wilmington, Del.) and RNA Quality Indicator (RQI) higher than 8.0 (Experion Automated Electrophoresis, Bio-Rad, USA) was considered to be high-quality total RNA preparations. A 10 μl of reaction mixture with 20 ng cDNA, 5 μl TaqMan mastermix (Applied Biosystems, Foster City, Calif., USA), and 100 nM TagMan gene expression assay were run in a 7900HT Fast Real-Time System (Applied Biosystems). The qPCR was carried out as follows: 50° C. for 2 minutes, 95° C. for 10 minutes, 40 cycles of 95° C. for 15 seconds, and 60° C. for 1 minute. The amount of mRNA was calculated relative to the amount of housekeeping genes (GAPDH, PPIA or HPRT) mRNA in the same sample by the formula X0/R0=2CtR-CtX, where X0 is the original amount of mRNA for the gene of interest, R0 is the original amount of HPRT mRNA, CtR the Ct value for HPRT, and CtX the Ct value for the gene of interest. Primer sequences are provided upon request.

Test [2] has as its system islets of C57/BL mice. In words: ATP content and GSIS in islets of control C57/BL mice. It counts as cell-based, mouse. The conditions noted are these: VDAC1 antibody 10 nM; for GSIS: others 20 μM (FIG. 7e); for ATP content: others 20 μM (FIG. 7d). How it is done: 5 weeks old db/db mice and control (C57/bl) (Janvier Laboratory, France), weighing 18-25 g, were used throughout the experiments. They were given a standard pellet diet (B&K) and tap water ad libitum. The experimental procedures were approved by the Ethics Committee for Animal Research at Lund University. Isolation of pancreatic islets was performed by retrograde injection of a collagenase solution via the bile-pancreatic duct and islets were then collected under a stereomicroscope at room temperature.
(§1) Human pancreatic islets were collected under a stereomicroscope at room temperature and cultured at 5.5 or 20 mM glucose in the absence or presence of test agents for 72 h. Thereafter the islets were washed and preincubated for 30 min at 37° C. in Krebs Ringer bicarbonate buffer, pH 7.4, supplemented with N-2 hydroxyethylpiperazine-N′-2-ethanesulfonic acid (10 mM), 0.1% bovine serum albumin, and 1 mM glucose. Each incubation vial contained 12 islets in 1.0 ml KRB buffer solution and treated with 95% O2 and 5% CO2 to obtain constant pH and oxygenation. After preincubation, the buffer was changed to a medium containing either 1 mM or 16.7 mM glucose. The islets were then incubated for 1 h at 37° C. in a metabolic shaker (30 cycles per min). Immediately after incubation an aliquot of the medium was removed for analysis of insulin and the islets were incubated in acid-ethanol for insulin content determination by radioimmunoassay.
(§2) ATP release from isolated mouse or human islets or from INS-1 cells after transfection with mitochondrial targeted VDAC1 (mtVDAC1) or plasma membrane targeted VDAC1 (plVDAC1) plasmids was determined using a luminometric assay kit according to manufacturer's recommendation (Biovision). After incubation of islets (50/vial) or INS-1 cells for 60 min, an aliquot of the media was removed for subsequent measurements of released ATP. Then the islets or INS-1 cells were washed 3 times and the lysates were used for measurements of ATP and protein contents followed the protocol provided by the vendor.

Test [3] relates to islets from T2D donors. As to the kind of experiment: ATP content and GSIS in islets from T2D donors, acute addition of VDAC1 inhibitors. It counts as cell-based, human. The note with it: for GSIS: T2D islets, acute addition 1 h (FIG. 6f); for islet ATP content: islets from 5 T2D donors and one IGT donor, 1 h, at 1 and 16.7 mM glucose (FIG. 6e).
From the text: Human pancreatic islets were obtained through collaboration between Human Tissue Laboratory within Lund University Diabetes Centre (LUDC) and the Nordic Network for Clinical Islet Transplantation (Prof. Olle Korsgren, Uppsala University, Sweden). Donors were grouped according to HbA1c i.e. less than 6% (ND), between 6% and 6.5% (IGT), higher than 6.5% or history of diabetes (T2D). The human islets (70-90% purity) had been cultured in CMRL 1066 (ICN Biomedicals, Costa Mesa, Calif.) supplemented with 10 mM HEPES, 2 mM L-glutamine, […] gentamicin, […] fungizone (Gibco, BRL, Gaithersburg, Md.), 20 μg/ml ciprofloxacin (Bayer Healthcare, Leverkusen, Germany) and 10 mM nicotinamide at 37° C. (5% CO2) for 1 to 5 days prior to the arrival in the laboratory. The islets were then hand-picked under stereomicroscope prior to use. All procedures using human islets were approved by the ethical committees at Uppsala and Lund Universities, Sweden.
as §1, §2

`O=C(CC(CO)N1CCN(c2ccc(OC(F)(F)F)cc2)CC1)Nc1ccc(Cl)cc1` (racemic) [VBIT-4, N-(4-chlorophenyl)-4-hydroxy-3-(4-(4-(trifluoromethoxy)phenyl)-piperazin-1-yl)butanamide]: the “glucose evoked VDAC1 upregulation (total VDAC1 expression)” value in test [1] is on record as “abrogated the glucose evoked VDAC1 upregulation”. Also, in test [2], the GSIS result is reported as “do not affect” and the ATP content entry is on record as “do not affect”. In addition, in test [3], the GSIS result is “increased in parallel with the improved ATP generation” and the “islet ATP content” value is on record as “increased islet ATP content”.

Take `CN(C)C(=N)N=C(N)N` [metformin]: the “glucose evoked VDAC1 upregulation (total VDAC1 expression)” value in test [1] is reported as “abrogated the glucose evoked VDAC1 upregulation”. Besides, in test [2], the GSIS result was “do not affect” and the ATP content result is recorded as “do not affect”. Moreover, in test [3], the GSIS result was “increased in parallel with the improved ATP generation” and the “islet ATP content” value was “increased islet ATP content”.
